Assay results reported in patent publication US20150322051A1, “Macrocyclic picolinamides as fungicides” (Dow AgroSciences LLC, priority 2014, published 2015).
Read-outs that look alike come from different tables or passages of the source.

How the values were obtained:
[1] = system: Puccinia triticina; synonym: Puccinia recondita f. sp. tritici (PUCCRT); assay: Wheat brown rust (PUCCRT) whole-plant fungicidal test; format: in vivo; conditions: topical; for pest or weed control at 100 ppm: high volume application; for pest or weed control at 121.5 g/ha: low volume (track spray) application, 121.5 g/H
[2] = system: Mycosphaerella graminicola; anamorph: Septoria tritici (SEPTTR); assay: Leaf blotch of wheat (SEPTTR) whole-plant fungicidal test; format: in vivo; conditions: Zymoseptoria tritici, topical; for pest or weed control at 100 ppm: high volume application; for pest or weed control at 121.5 g/ha: low volume (track spray) application, 121.5 g/H
[3] = 24 h, 1 Day Protectant, read-out: High Volume activity at 100 ppm PUCCRT 1DP (% disease control rating)
[4] = 24 h, 1 Day Protectant, read-out: Low Volume activity at 121.5 g/H PUCCRT 1DP (% disease control rating)
[5] = 72 h, 3 Day Curative, read-out: High Volume activity at 100 ppm PUCCRT 3DC (% disease control rating)
[6] = 72 h, 3 Day Curative, read-out: Low Volume activity at 121.5 g/H PUCCRT 3DC (% disease control rating)
[7] = 24 h, 1 Day Protectant, read-out: High Volume activity at 100 ppm SEPTTR 1DP (% disease control rating)
[8] = 24 h, 1 Day Protectant, read-out: Low Volume activity at 121.5 g/H SEPTTR 1DP (% disease control rating)
[9] = 72 h, 3 Day Curative, read-out: High Volume activity at 100 ppm SEPTTR 3DC (% disease control rating)
[10] = 72 h, 3 Day Curative, read-out: Low Volume activity at 121.5 g/H SEPTTR 3DC (% disease control rating)

CCCC[C@@H]1[C@@H](Cc2ccccc2)CCC[C@H](NC(=O)c2nccc(OC)c2OCOC(C)=O)C(=O)O[C@H]1C [Compound 2, ((2-(((3S,7R,8R,9S)-7-benzyl-8-butyl-9-methyl-2-oxooxonan-3-yl)carbamoyl)-4-methoxypyridin-3-yl)oxy)methyl acetate]
pest or weed control at 100 ppm [1, 3]: > 70%
pest or weed control at 121.5 g/ha [1, 4]: > 70%
pest or weed control at 100 ppm [1, 5]: > 70%
pest or weed control at 121.5 g/ha [1, 6]: < 70%
pest or weed control at 100 ppm [2, 7]: > 70%
pest or weed control at 121.5 g/ha [2, 8]: > 70%
pest or weed control at 100 ppm [2, 9]: > 70%
pest or weed control at 121.5 g/ha [2, 10]: > 70%

CCOCC(=O)OCOc1c(OC)ccnc1C(=O)N[C@H]1CCC[C@H](Cc2ccc(C(F)(F)F)cc2)[C@@H](Cc2ccc(OC(F)(F)F)cc2)[C@H](C)OC1=O [Compound 66]
pest or weed control at 121.5 g/ha [1, 4]: < 70%
pest or weed control at 121.5 g/ha [1, 6]: < 70%
pest or weed control at 121.5 g/ha [2, 8]: < 70%
pest or weed control at 121.5 g/ha [2, 10]: < 70%

COc1ccnc(C(=O)N[C@H]2CCC[C@H](Cc3ccccc3)[C@@H](Cc3ccc(F)cc3)[C@H](C)OC2=O)c1OCOC(=O)C(C)C [Compound 64]
pest or weed control at 121.5 g/ha [1, 4]: > 70%
pest or weed control at 121.5 g/ha [1, 6]: < 70%
pest or weed control at 121.5 g/ha [2, 8]: > 70%
pest or weed control at 121.5 g/ha [2, 10]: > 70%

COc1ccnc(C(=O)N[C@H]2CCC[C@H](Cc3ccccc3)[C@@H](Cc3ccccc3)[C@H](C)OC2=O)c1OC(C)=O [Compound 5]
pest or weed control at 121.5 g/ha [1, 4]: > 70%
pest or weed control at 121.5 g/ha [1, 6]: > 70%
pest or weed control at 121.5 g/ha [2, 8]: > 70%
pest or weed control at 121.5 g/ha [2, 10]: > 70%

COc1ccnc(C(=O)N[C@H]2CCC[C@H](CCCc3ccccc3)[C@@H](CCc3ccccc3)[C@H](C)OC2=O)c1OC(C)=O [Compound 33]
pest or weed control at 121.5 g/ha [1, 4]: < 70%
pest or weed control at 121.5 g/ha [1, 6]: < 70%
pest or weed control at 121.5 g/ha [2, 8]: > 70%
pest or weed control at 121.5 g/ha [2, 10]: < 70%

COc1ccnc(C(=O)N[C@H]2CCC[C@H](CCCc3ccccc3)[C@@H](CC(C)C)[C@H](C)OC2=O)c1O [Compound 92]
pest or weed control at 100 ppm [1, 3]: > 70%
pest or weed control at 100 ppm [1, 5]: < 70%
pest or weed control at 100 ppm [2, 7]: > 70%
pest or weed control at 100 ppm [2, 9]: < 70%

COc1ccnc(C(=O)N[C@H]2CCC[C@H](CCCc3ccccc3)[C@@H](Cc3ccc(OC(F)(F)F)cc3)[C@H](C)OC2=O)c1OC(=O)C(C)C [Compound 58, 4-methoxy-2-(((3S,7S,8R,9S)-9-methyl-2-oxo-7-(3-phenylpropyl)-8-(4-(trifluoromethoxy)benzyl)oxonan-3-yl)carbamoyl)pyridin-3-yl isobutyrate]
pest or weed control at 121.5 g/ha [1, 4]: < 70%
pest or weed control at 121.5 g/ha [1, 6]: < 70%
pest or weed control at 121.5 g/ha [2, 8]: < 70%
pest or weed control at 121.5 g/ha [2, 10]: < 70%

COc1ccnc(C(=O)N[C@H]2CCC[C@H](CCC(C)C)[C@@H](CCc3ccccc3)[C@H](C)OC2=O)c1OC(C)=O [Compound 36]
pest or weed control at 121.5 g/ha [1, 4]: > 70%
pest or weed control at 121.5 g/ha [1, 6]: < 70%
pest or weed control at 121.5 g/ha [2, 8]: > 70%
pest or weed control at 121.5 g/ha [2, 10]: > 70%

COc1ccnc(C(=O)N[C@H]2CCC[C@H](Cc3ccccc3)[C@@H](Cc3ccc(F)cc3)[C@H](C)OC2=O)c1OCOC(C)=O [Compound 63]
pest or weed control at 121.5 g/ha [1, 4]: > 70%
pest or weed control at 121.5 g/ha [1, 6]: < 70%
pest or weed control at 121.5 g/ha [2, 8]: > 70%
pest or weed control at 121.5 g/ha [2, 10]: > 70%

CCOCC(=O)OCOc1c(OC)ccnc1C(=O)N[C@H]1CCC[C@H](Cc2ccc(Cl)cc2)[C@@H](Cc2ccccc2)[C@H](C)OC1=O [Compound 20]
pest or weed control at 121.5 g/ha [1, 4]: > 70%
pest or weed control at 121.5 g/ha [1, 6]: > 70%
pest or weed control at 121.5 g/ha [2, 8]: > 70%
pest or weed control at 121.5 g/ha [2, 10]: < 70%

CCC[C@H]1CCC[C@H](NC(=O)c2nccc(OC)c2OCOC(C)=O)C(=O)O[C@@H](C)[C@@H]1Cc1ccc(F)cc1 [Compound 48]
pest or weed control at 121.5 g/ha [1, 4]: > 70%
pest or weed control at 121.5 g/ha [1, 6]: > 70%
pest or weed control at 121.5 g/ha [2, 8]: > 70%
pest or weed control at 121.5 g/ha [2, 10]: > 70%

COc1ccnc(C(=O)N[C@H]2CCC[C@H](Cc3ccccc3)[C@@H](Cc3ccccc3)[C@H](C)OC2=O)c1OCOC(=O)C(C)C [Compound 7, ((2-(((3S,7R,8R,9S)-7,8-dibenzyl-9-methyl-2-oxooxonan-3-yl)carbamoyl)-4-methoxypyridin-3-yl)oxy)methyl isobutyrate]
pest or weed control at 121.5 g/ha [1, 4]: > 70%
pest or weed control at 121.5 g/ha [1, 6]: > 70%
pest or weed control at 121.5 g/ha [2, 8]: > 70%
pest or weed control at 121.5 g/ha [2, 10]: > 70%

CCC[C@H]1CCC[C@H](NC(=O)c2nccc(OC)c2OCOC(C)=O)C(=O)O[C@@H](C)[C@@H]1Cc1ccccc1 [Compound 37]
pest or weed control at 121.5 g/ha [1, 4]: > 70%
pest or weed control at 121.5 g/ha [1, 6]: > 70%
pest or weed control at 121.5 g/ha [2, 8]: > 70%
pest or weed control at 121.5 g/ha [2, 10]: > 70%

COc1ccnc(C(=O)N[C@H]2CCC[C@H](Cc3ccc(Cl)cc3)[C@@H](CC(C)C)[C@H](C)OC2=O)c1O [Compound 76]
pest or weed control at 100 ppm [1, 3]: > 70%
pest or weed control at 100 ppm [1, 5]: < 70%
pest or weed control at 100 ppm [2, 7]: > 70%
pest or weed control at 100 ppm [2, 9]: > 70%

COc1ccnc(C(=O)N[C@H]2CCC[C@H](Cc3ccc(C(F)(F)F)cc3)[C@@H](Cc3ccccc3)[C@H](C)OC2=O)c1OCOC(=O)C(C)C [Compound 27]
pest or weed control at 121.5 g/ha [1, 4]: > 70%
pest or weed control at 121.5 g/ha [1, 6]: < 70%
pest or weed control at 121.5 g/ha [2, 8]: > 70%
pest or weed control at 121.5 g/ha [2, 10]: < 70%

COc1ccnc(C(=O)N[C@H]2CCC[C@H](Cc3ccc(C(F)(F)F)cc3)[C@@H](Cc3ccccc3)[C@H](C)OC2=O)c1O [Compound 81]
pest or weed control at 100 ppm [1, 3]: > 70%
pest or weed control at 100 ppm [1, 5]: < 70%
pest or weed control at 100 ppm [2, 7]: > 70%
pest or weed control at 100 ppm [2, 9]: < 70%

COc1ccnc(C(=O)N[C@H]2CCC[C@H](Cc3ccccc3)[C@@H](CCC(C)C)[C@H](C)OC2=O)c1O [Compound 88]
pest or weed control at 100 ppm [1, 3]: > 70%
pest or weed control at 100 ppm [1, 5]: < 70%
pest or weed control at 100 ppm [2, 7]: < 70%
pest or weed control at 100 ppm [2, 9]: > 70%

COc1ccnc(C(=O)N[C@H]2CCC[C@H](Cc3ccc(Cl)cc3)[C@@H](C3CCCC3)[C@H](C)OC2=O)c1OCOC(C)=O [Compound 29]
pest or weed control at 121.5 g/ha [1, 4]: > 70%
pest or weed control at 121.5 g/ha [1, 6]: < 70%
pest or weed control at 121.5 g/ha [2, 8]: > 70%
pest or weed control at 121.5 g/ha [2, 10]: > 70%

COc1ccnc(C(=O)N[C@H]2CCC[C@H](Cc3ccc(C(F)(F)F)cc3)[C@@H](CC(C)C)[C@H](C)OC2=O)c1OCOC(=O)C(C)C [Compound 24]
pest or weed control at 121.5 g/ha [1, 4]: < 70%
pest or weed control at 121.5 g/ha [1, 6]: < 70%
pest or weed control at 121.5 g/ha [2, 8]: > 70%
pest or weed control at 121.5 g/ha [2, 10]: < 70%

COc1ccnc(C(=O)N[C@H]2CCC[C@H](Cc3ccccc3)[C@@H](CCC(C)C)[C@H](C)OC2=O)c1OC(C)=O [Compound 45]
pest or weed control at 121.5 g/ha [1, 4]: > 70%
pest or weed control at 121.5 g/ha [1, 6]: < 70%
pest or weed control at 121.5 g/ha [2, 8]: > 70%
pest or weed control at 121.5 g/ha [2, 10]: > 70%

COc1ccnc(C(=O)N[C@H]2CCC[C@H](CCCc3ccccc3)[C@@H](Cc3ccc(OC(F)(F)F)cc3)[C@H](C)OC2=O)c1OCOC(C)=O [Compound 59]
pest or weed control at 121.5 g/ha [1, 4]: > 70%
pest or weed control at 121.5 g/ha [1, 6]: < 70%
pest or weed control at 121.5 g/ha [2, 8]: > 70%
pest or weed control at 121.5 g/ha [2, 10]: < 70%

COc1ccnc(C(=O)N[C@H]2CCC[C@H](CCC(C)C)[C@@H](C3CCCC3)[C@H](C)OC2=O)c1OC(C)=O [Compound 43]
pest or weed control at 121.5 g/ha [1, 4]: > 70%
pest or weed control at 121.5 g/ha [1, 6]: < 70%
pest or weed control at 121.5 g/ha [2, 8]: > 70%
pest or weed control at 121.5 g/ha [2, 10]: > 70%
